Holding throughout (type): cell-based, mouse
For one experiment, the system named is IL-6. As to the kind of experiment: IL-6 release from murine osteoblast (culture supernatant cytokine assay). The settings on record: 24 hours culture. The protocol:
Under anesthesia with pentobarbital sodium (25 mg/kg, intraperitoneal administration), postcava was cut to bleed and kill the animal to death. Then, bilateral femoral bones were resected. This bone was cut with a pair of bone scissors, to remove the bone marrow with a micro-loop. The inner face of the bone was rubbed off with a sharp blade. The resulting matter was agitated in a 10 % collagenase solution (Nitta gelatin) at 37 °C for 20 minutes, and to the resulting mixture was added a culture medium (an MEM culture medium supplemented with 10 % charcoal-treated bovine fetal serum; manufactured by Nissui Pharmaceutical, Co. Ltd.) prior to centrifugation (300×g, 5 minutes and 20 °C). The resulting cells were dispersed in a fresh culture medium and then inoculated on a plastic culture dish (diameter of 35 mm, Primaria (Falcon)). […] Osteoblast was identified by using alkali phosphatase staining as an osteoblast marker. For recovering osteoblast from an animal after ovariectomy, ovariectomy was carried out at age 11 weeks, and the animal was fed for the following 4 weeks, prior to the same treatment.
Dienogest as a test substance was dissolved and diluted in dimethylsulfoxide (DMSO, manufactured by Wako Pure Chemical Industries, Ltd.) for use. As a control substance, furthermore, MPA and danazol were used after they were dissolved and diluted in DMSO. DMSO was used as a solvent control.
The final concentrations of the drug were 10^-11, 10^-10 and 10^-9 M. For experiments, furthermore, three dishes per each group were used.
Using SMRART ™ (Pharmacia Biotech, Uppsala, Sweden), the supernatant was concentrated by about 10 fold, after the termination of culturing. The level of cytokine in the sample was assayed by using assay kits of murine IL-1β, IL-6 and TNF-α (Cytoscreen™, BioSource International, Camarillo, Calif. CA, USA) and europium-labeled streptoavidin (Pharmacia Biotech).

Another experiment has as its system murine osteoclast. The experiment is described as follows: Pit formation by murine osteoclast on ivory disks. Conditions: 3 days culture on ivory disk, control 0.16. Here is the method:
After an ICR mouse of age 13 days was bled to death under anesthesia (pentobarbital sodium), bilateral femoral bones were resected. In an α-MEM culture medium (Gibco), the femoral bones were cut into pieces with a pair of bone scissors for 5 minutes, and the resulting pieces were agitated with a vortex mixer for 30 seconds. The cell suspension was centrifuged (1000 g, 2 min., 15 °C), and the resulting supernatant was discarded. The precipitate was suspended in an α-MEM culture medium, to adjust the suspension to a cell number of 1×10^7 cells/ml.
A purchased ivory piece was processed into a disk of a diameter of 5.5 mm and a thickness of 200 µm, by using a precision low-speed cutter (manufactured by BUEHLER) and a cut blade. The disk was then treated under ultrasonication in distilled water, and was immersed in an α-MEM culture medium (culture medium) supplemented with 10 % bovine fetal serum (Dai-Nippon Pharmaceuticals, Co.) treated with charcoal. The resulting each disk was placed in each well of a 96-well culture plate (Falcon), to which was added 100 µl of the drug solution. The osteoclast suspension was inoculated at 1×10^6 cells(100µl) thereon, for culturing at 37 °C in 5 % CO2/95 % air for 3 days. All the drugs were adjusted to final concentrations of 10^-11, 10^-10 and 10^-9 M. Additionally, five samples per each concentration were experimented.
Absorbency was determined by calculating a phargocytized area on the bone. More specifically, the ivory piece after the treatment with the drugs was wiped with gauze, rinsed with an ultrasonication machine for 30 minutes, and stained with an acid hematoxylin solution (Sigma Chemical Co., Ltd.) for 5 minutes. The piece was then rinsed in distilled water, and the phargocytized absorption area was measured with an image analyzer (Luzex, Nireco) at 100 magnification. Nine different parts were counted per each ivory piece, to calculate the average.

The next experiment relates to PKA. As to the kind of experiment: PKA activity in murine osteoblast (time-resolved fluorometry). The settings on record: Fig.2. Here is the method: According to the method by Johansen, et al. (Journal Bone and Mineral Research, Vol.7, pp.501-509, 1992), osteoblast was collected from the femoral bones of a female SLC : ICR mouse of age 15 weeks. Under anesthesia with pentobarbital sodium (25 mg/kg, intraperitoneal administration), postcava was cut to bleed and kill the animal to death. Then, bilateral femoral bones were resected. This bone was cut with a pair of bone scissors, to remove the bone marrow with a micro-loop. The inner face of the bone was rubbed off with a sharp blade. The resulting matter was agitated in a 10 % collagenase solution (Nitta gelatin) at 37 °C for 20 minutes, and to the resulting mixture was added a culture medium (an MEM culture medium supplemented with 10 % charcoal-treated bovine fetal serum; manufactured by Nissui Pharmaceutical, Co. Ltd.) prior to centrifugation (300×g, 5 minutes and 20 °C). The resulting cells were dispersed in a fresh culture medium and then inoculated on a plastic culture dish (diameter of 35 mm, Primaria (Falcon)). […] Osteoblast was identified by using alkali phosphatase staining as an osteoblast marker. For recovering osteoblast from an animal after ovariectomy, ovariectomy was carried out at age 11 weeks, and the animal was fed for the following 4 weeks, prior to the same treatment. 1×10^4 cells/ml osteoblast suspension (100 µl), a culture medium (890 µl) and a drug solution (10 µl) were added into each well of a plastic 24-well culture plate (Falcon), for culturing at 37 °C in 5 % CO2/95 % air for 24 hours, and then, the resulting culture was centrifuged (300 ×g, 5 minutes, 20°C) to recover the supernatant, which was defined as a cytokine assay sample. […] For experiments, furthermore, three dishes per each group were used. The osteoblast recovered by the method of the Experimental Example 1 was used. […] An enhancer reagent (100 µl) was added, for agitation at room temperature for 5 minutes, to determine the fluorescence intensity with a time-resolved fluorometer. Based on a preliminarily prepared standard curve, PKA activity was calculated.

Where [1] appears, read: osteoblast of non-treated mouse, 10^-9 M, control 39.9.
Where [2] appears, read: osteoblast of non-treated mouse, 10^-10 M, control 39.9.
Setting [3] is: osteoblast of non-treated mouse, 10^-11 M, control 39.9.
Where [4] appears, read: osteoblast of ovariectomized mouse, 10^-9 M, control 109.0.
[5] abbreviates: osteoblast of ovariectomized mouse, 10^-10 M, control 109.0.
Setting [6] is: osteoblast of ovariectomized mouse, 10^-11 M, control 109.0.
Setting [7] is: doses of 10^-11, 10^-10 and 10^-9 M.

Marks after values point to notes of the source that are not given here.

On to `C#C[C@]1(O)CC[C@H]2[C@@H]3CCC4=Cc5oncc5C[C@]4(C)[C@H]3CC[C@@]21C` [Danazol, danazol], for which the IL-6 with IL-6 (setting [1]) was 42.0** pg/ml; in the experiment on IL-6 (setting [2]) it was 37.7 pg/mL; in the experiment on IL-6 (setting [3]), 38.9 pg/mL; in the experiment with IL-6 (setting [4]) it was 124.0** pg/ml; with IL-6 (setting [5]), 109.4 pg/mL; in the experiment on IL-6 (setting [6]), 111.3 pg/mL. The “pit formation due to murine osteoclast (phargocytized absorption area)” value (from here on “pit formation due to murine osteoclast”) came out at 0.16 with murine osteoclast (10^-9 M), 0.15 in the experiment with murine osteoclast (10^-10 M) and 0.16 in the experiment on murine osteoclast (10^-11 M). For the same molecule, the “PKA activity in the murine osteoblast” value in the experiment on PKA (setting [7]) is given as “did not affect”.
For `C[C@]12CCC3=C4CCC(=O)C=C4CC[C@H]3[C@@H]1CC[C@@]2(O)CC#N` [Dienogest, 17 α-cyanomethyl-17β-hydroxy-estra-4,9(10)-dien-3-one], the IL-6 with IL-6 (setting [1]) was 32.3** pg/ml; in the experiment with IL-6 (setting [2]) it was 35.5 pg/mL; in the experiment with IL-6 (setting [3]), 39.3 pg/mL; in the experiment on IL-6 (setting [4]) it was 40.1** pg/ml; in the experiment with IL-6 (setting [5]), 47.7** pg/ml; in the experiment with IL-6 (setting [6]), 94.2 pg/mL. The “pit formation due to murine osteoclast” value in the experiment with murine osteoclast (10^-9 M) is listed as 0.10**; in the experiment with murine osteoclast (10^-10 M) it was 0.15; in the experiment with murine osteoclast (10^-11 M), 0.15. Also, the “PKA activity in the murine osteoblast” value in the experiment with PKA (at a concentration of 10^-9 M or more) was “significantly enhanced”.
In the case of `CC(=O)O[C@]1(C(C)=O)CC[C@H]2[C@@H]3C[C@H](C)C4=CC(=O)CC[C@]4(C)[C@H]3CC[C@@]21C` [MPA, medroxyprogesterone acetate], the IL-6 in the experiment with IL-6 (setting [1]) was 45.1** pg/ml; in the experiment with IL-6 (setting [2]), 37.6 pg/mL; in the experiment with IL-6 (setting [3]), 38.7 pg/mL; in the experiment on IL-6 (setting [4]) it was 122.5** pg/ml; with IL-6 (setting [5]), 109.3 pg/mL; in the experiment on IL-6 (setting [6]), 111.4 pg/mL. For the same molecule, the “pit formation due to murine osteoclast” value in the experiment with murine osteoclast (10^-9 M), in the experiment on murine osteoclast (10^-10 M) and in the experiment on murine osteoclast (10^-11 M) was 0.16 each time. The “PKA activity in the murine osteoblast” value in the experiment on PKA (setting [7]) is listed as “did not affect”.
